# Experiments:
# [1] = test system: human hormone-resistant prostatic cancer (PC-3); assay: Example 9: FK330 with paclitaxel in PC-3 tumor-bearing mice; type: in vivo, nude mice; conditions: FK330 100 mg/kg bid p.o. + paclitaxel 10 mg/kg/day i.v. multicycle
# Method: The dose of FK330 is expressed in terms of the weight of a simple substance (non-hydrate). Paclitaxel was purchased from LC Laboratories, Inc. (Woburn, Mass., USA), and was used as paclitaxel.
# FK330 was suspended (20 mg/mL) in a 0.5% aqueous methyl cellulose solution (0.5% MC), and was orally administered. Paclitaxel was prepared into a stock solution at 10 mg/mL with an ethanol/cremophor solution (mixed at 1:1), and then the stock solution was diluted to 1 mg/mL with physiological saline for injection (Otsuka Pharmaceutical Group) immediately before administration and was intravenously administered through the tail vein.
# Human hormone-resistant prostatic cancer-derived PC-3 (CRL-1435) was obtained from American Type Culture Collection (VA, USA). […]
# (§1) The body weight and the tumor diameter, determined by using a digital caliper, were measured twice a week. The tumor volume was calculated from the calculation formula for ellipsoid volume of (major axis×[minor axis]^2×0.5).
# (§2) The results are expressed as the mean value (Mean)±standard error (SEM). […] Using the actual measured values of the tumor volume at each measurement time point, an unpaired statistical test (Student's t-test) of the difference between two groups was carried out between a single administration group and a combination use group. […]
# [2] = test system: human breast cancer (MDA-MB-468); assay: Example 11: FK330 with docetaxel in MDA-MB-468 tumor-bearing mice; type: in vivo, nude mice; conditions: FK330 100 mg/kg bid p.o. + docetaxel 15 mg/kg/day i.v. (Day 0 and Day 37)
# Method: The dose of FK330 is expressed in terms of the weight of a simple substance (non-hydrate). Docetaxel (a docetaxel hydrate injectable preparation (Taxotere (trademark), for intravenous infusion)) was purchased from Sanofi-Aventis SA, and was used as docetaxel.
# FK330 was suspended (20 mg/mL) in a 0.5% aqueous methyl cellulose solution (0.5% MC), and was orally administered. Docetaxel was prepared to a concentration of 20 mg/mL with 95% ethanol, and then diluted to 1.5 mg/mL with physiological saline for injection (Otsuka Pharmaceutical Group) immediately before administration and intravenously administered through the tail vein.
# Human breast cancer-derived MDA-MB-468 (HTB-132) was obtained from American Type Culture Collection (VA, USA). […]
# as §1
# as §2, with “combined” for “combination”
structure (smiles),measurement,setting,value
"O=C(/C=C/c1ccc(Cl)cc1)N[C@@H](Cc1ccccn1)C(=O)NCC(=O)N1CCC(Oc2cc(C(F)(F)F)ncn2)CC1 [FK330, N^2-[(2E)-3-(4-chlorophenyl)-2-propenoyl]-N-[2-oxo-2-(4-{[6-(trifluoromethyl)pyrimidin-4-yl]oxy}piperidin-1-yl)ethyl]-3-pyridin-2-yl-L-alaninamide]",tumor volume reduction ratio compared with the paclitaxel-only group,"[1]; Day 30, P<0.05",63.1%
same,tumor volume reduction ratio compared with the paclitaxel-only group,"[1]; Day 55, P<0.001",72.1%
same,tumor volume reduction ratio compared with the docetaxel-only group,"[2]; Day 37, P<0.05",46.6%
same,tumor volume reduction ratio compared with the docetaxel-only group,"[2]; Day 65, P<0.01",76.6%

# Source: patent US20140066385A1, “METHOD FOR TREATING CANCER BY COMBINED USE OF DRUGS” (Astellas Pharma Inc., priority 2011, published 2014)
